We go through 40 compounds from patent US5436254A, “Carbostyril derivatives” (Otsuka Pharmaceutical Company, Ltd., priority 1989, dated 1995).

The test deals with V1 receptor (Rattus norvegicus, UniProt P30560). Kind of test: biochemical. It is filed as binding.

The structures appear in SMILES notation. Like-named read-outs stand apart in the source and are kept apart here.

V1 receptor, sequence (P30560 whole entry): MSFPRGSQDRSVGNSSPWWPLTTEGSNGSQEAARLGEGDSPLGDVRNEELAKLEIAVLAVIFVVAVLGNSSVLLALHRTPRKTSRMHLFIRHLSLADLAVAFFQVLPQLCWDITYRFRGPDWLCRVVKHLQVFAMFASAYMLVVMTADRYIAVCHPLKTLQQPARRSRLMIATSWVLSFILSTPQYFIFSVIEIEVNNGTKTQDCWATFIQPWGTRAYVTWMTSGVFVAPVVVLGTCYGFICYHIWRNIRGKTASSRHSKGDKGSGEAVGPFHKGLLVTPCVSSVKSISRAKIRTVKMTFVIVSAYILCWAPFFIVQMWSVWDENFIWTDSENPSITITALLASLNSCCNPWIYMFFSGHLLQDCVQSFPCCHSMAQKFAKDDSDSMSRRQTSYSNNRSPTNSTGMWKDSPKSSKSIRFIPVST
Protocol: Experiment 1: V1 receptor binding assay
Using rat liver plasma membrane preparations prepared according to Ichihara's method [cf: Akira Ichihara, J. Bio. Chem., 258 9283 (1983)], the plasma membrane (50000 dpm, 2×10^-10 M) of [H]^3 -Arg-vasopressin and a test compound (100 ng, 10^-7 -10^-4 M) are incubated at 37° C. for 10 minutes in 100 mM Tris-HCl buffer pH: 8.0 (250 μl) containing 5 mM MgCl2, 1 mM EDTA and 0.1% BSA. After incubation, the mixture is filtered three times using the glass filter (GF/F) so as to separate the membrane preparation combining with vasopressin and then washed with the buffer (5 ml). This glass filter is taken out and mixed with liquid scintillation cocktail. The amount of [H]^3 -vasopressin combining with the membrane is measured by liquid scintillation counter and the rate of the inhibitory effect of the test compound is estimated according to the following equation. [formula] C^1 : The amount of [H]^3 -vasopressin combining with the membrane in the presence of the test compound (known amount).
C^0 : The amount of [H]^3 -vasopressin combining with the membrane in the absence of the test compound.
B^1 : The amount of [H]^3 -vasopressin combining with the membrane in the presence of the excess amount of vasopressin (10^-6 M).

For orientation: IC50 means the concentration at which inhibition is half-maximal. Higher therefore signals weaker potency. `NC(=O)CCCNc1ccc(C(=O)N2CCC(N3C(=O)CCc4ccccc43)CC2)cc1` [Example 88, 1-{1-[4-(3-Carbamoylpropylamino)benzoyl]-4-piperidinyl)-3,4-dihydrocarbostyril] had an IC50 of 1000 nM.

`CCSc1nccn1-c1ccc(C(=O)N2CCC(N3C(=O)CCc4ccccc43)CC2)cc1` [Example 89, 1-{1-[4-(2-Ethylthioimidazol-1-yl)benzoyl]-4-piperidinyl)-3,4-dihydrocarbostyril] had an IC50 of 1600 nM.

For the compound `C=CCN(C)c1ccc(C(=O)N2CCC(N3C(=O)CCc4ccccc43)CC2)cc1` [Example 90, 1-{1-[4-(N-Allyl-N-methylamino)benzoyl]-4-piperidinyl)-3,4-dihydrocarbostyril], half-maximal inhibition (IC50) required 1100 nM. The IC50 values of the last two compounds are within 1.5-fold of each other.

Turning to `O=C(c1ccc(N2CCCC2)cc1)N1CCC(N2C(=O)CCc3ccccc32)CC1` [Example 91, 1-{1-[4-(1-Pyrrolidinyl)benzoyl]-4-piperidinyl}-3,4-dihydrocarbostyril], the IC50 was 720 nM. This IC50 lies about 1.5-fold lower than the previous one.

In turn, `CN(CCCOc1ccc(C(=O)N2CCC(N3C(=O)CCc4ccccc43)CC2)cc1)C(=O)c1ccccc1` [Example 92, 1-[1-{4-[3-(N-Methyl-N-benzoylamino)propoxy]benzoyl}-4-piperidinyl)-3,4-dihydrocarbostyril] registered an IC50 of 1200 nM. This IC50 lies about 1.7-fold higher than the previous one.

With `O=C(c1ccc(OCCCN2CCN(c3ccccc3)CC2)cc1)N1CCC(N2C(=O)CCc3ccccc32)CC1` [Example 93, 1-[1-{4-[3-(4-Phenyl-1-piperazinyl)propoxy]benzoyl)-4-piperidinyl]-3,4-dihydrocarbostyril], the half-maximal inhibitory concentration (IC50) came out at 640 nM.

On to `O=C(OCCCOc1ccc(C(=O)N2CCC(N3C(=O)CCc4ccccc43)CC2)cc1)c1ccccc1` [Example 94, 1-{1-[4-(3-Benzoyloxypropoxy)benzoyl]-4-piperidinyl}-3,4-dihydrocarbostyril], for which the midpoint of inhibition, the IC50, lay at 630 nM.

Consider `CCSCCCOc1ccc(C(=O)N2CCC(N3C(=O)CCc4ccccc43)CC2)cc1` [Example 95, 1-{1-[4-(3-Ethylthiopropoxy)benzoyl]-4-piperidinyl}-3,4-dihydrocarbostyril], for which the half-maximal inhibitory concentration (IC50) came to 960 nM. This IC50 is about 1.5-fold higher than that of the compound before.

As to `O=C(c1ccc(OCc2ccccc2)cc1)N1CCC(N2C(=O)CCc3ccccc32)CC1` [Example 97, 1-[1-(4-Benzyloxybenzoyl)-4-piperidinyl]-3,4-dihydrocarbostyril], inhibition was half-maximal at 1100 nM (IC50).

In turn, `O=C(c1ccc(OC2C=CCCC2)cc1)N1CCC(N2C(=O)CCc3ccccc32)CC1` (stereo not shown) [Example 98, 1-{1-[4-(2-Cyclohexenyloxy)benzoyl]-4-piperidinyl}-3,4-dihydrocarbostyril] gave a half-maximal inhibitory concentration (IC50) of 770 nM.

The compound `O=C(c1ccc(OC2CCCCC2)cc1)N1CCC(N2C(=O)CCc3ccccc32)CC1` [Example 99, 1-[1-(4-Cyclohexyloxybenzoyl)-4-piperidinyl]3,4-dihydrocarbostyril] displayed an IC50 of 960 nM.

`CS(=O)(=O)Oc1ccc(C(=O)N2CCC(N3C(=O)CCc4ccccc43)CC2)cc1` [Example 100, 1-[1-(4-Methylsulfonyloxybenzoyl)-4-piperidinyl]-3,4-dihydrocarbostyril] displayed a concentration for half-maximal inhibition (IC50) of 900 nM.

`O=C(c1ccc(OCC2CO2)cc1)N1CCC(N2C(=O)CCc3ccccc32)CC1` (stereo not shown) [Example 101, 1-[1-(4-Glycidoxybenzoyl)-4-piperidinyl]-3,4-dihydrocarbostyril] registered an IC50 of 1600 nM.

Consider `CCOC(=O)CN(C)c1cc(OC)ccc1C(=O)N1CCC(N2C(=O)CCc3ccccc32)CC1` [Example 102, 1-{1-[4-Methoxy-2-(N-methyl-N-ethoxycarbonylmethylamino)benzoyl]-4-piperidinyl}-3,4-dihydrocarbostyril], for which it took 1100 nM to reach half-maximal inhibition (IC50).

As for `COc1ccc(C(=O)N2CCC(N3C(=O)CCc4ccccc43)CC2)c(NC(=O)OCc2ccccc2)c1` [Example 103, 1-[1-(4-Methoxy-2-benzyloxycarbonylaminobenzoyl)-4-piperidinyl]-3,4-dihydrocarbostyril], the 50% inhibitory concentration (IC50) was 700 nM.

The compound `COc1ccc(C(=O)N2CCC(N3C(=O)CCc4ccccc43)CC2)c(NC(C)=O)c1` [Example 104, 1-[1-(4-Methoxy-2-acetylaminobenzoyl)-4-piperidinyl]-3,4-dihydrocarbostyril] had an IC50 of 1000 nM.

In turn, `CNC(=O)CNc1cc(OC)ccc1C(=O)N1CCC(N2C(=O)CCc3ccccc32)CC1` [Example 105, 1-[1-(4-Methoxy-2-methylaminocarbonylmethylamino)-4-piperidinyl]-3,4-dihydrocarbostyril] returned a 50% inhibitory concentration (IC50) of 1200 nM. The IC50 values of the last two compounds are within 1.5-fold of each other.

As for `O=C(c1ccc(C(F)(F)F)cc1)N1CCC(N2C(=O)CCc3ccccc32)CC1` [Example 106, 1-[1-(4-Trifluoromethylbenzoyl)-4-piperidinyl]-3,4-dihydrocarbostyril], the half-maximal inhibitory concentration (IC50) came to 700 nM.

Turning to `CC(=O)c1ccc(C(=O)N2CCC(N3C(=O)CCc4ccccc43)CC2)cc1` [Example 107, 1-[1-(4-Acetylbenzoyl)-4-piperidinyl]-3,4-dihydrocarbostyril], 750 nM corresponded to half-maximal inhibition (IC50).

The compound `O=C(c1ccc(C=NO)cc1)N1CCC(N2C(=O)CCc3ccccc32)CC1` [Example 108, 1-[1-(4-Hydroxyiminomethylbenzoyl)-4-piperidinyl]-3,4-dihydrocarbostyril] had a half-inhibitory concentration (IC50) of 1400 nM.

`COCc1ccc(C(=O)N2CCC(N3C(=O)CCc4ccccc43)CC2)cc1` [Example 109, 1-[1-(4-Methoxymethylbenzoyl)-4-piperidinyl]-3,4-dihydrocarbostyril] returned an IC50 of 750 nM. Against the preceding compound, the IC50 is about 1.9-fold lower.

Compound `C[Si](C)(C)c1ccc(C(=O)N2CCC(N3C(=O)CCc4ccccc43)CC2)cc1` [Example 110, 1-[1-(4-Trimethylsilylbenzoyl)-4-piperidinyl]-3,4-dihydrocarbostyril] had a 50% inhibitory concentration (IC50) of 1300 nM.

Consider `C=CCc1ccc(C(=O)N2CCC(N3C(=O)CCc4ccccc43)CC2)cc1` [Example 111, 1-[1-(4-Allylbenzoyl)-4-piperidinyl]-3,4-dihydrocarbostyril], for which the half-maximal inhibitory concentration (IC50) is 730 nM.

As for `O=C(c1ccc(C2CCCCC2)cc1)N1CCC(N2C(=O)CCc3ccccc32)CC1` [Example 112, 1-[1-(4-Cyclohexylbenzoyl)-4-piperidinyl]-3,4-dihydrocarbostyril], 970 nM corresponded to half-maximal inhibition (IC50).

`O=C(c1ccc2c(c1)OCO2)N1CCC(N2C(=O)CCc3ccccc32)CC1` [Example 113, 1-[1-(3,4-Methylenedioxybenzoyl)-4-piperidinyl]-3,4-dihydrocarbostyril] had a concentration for half-maximal inhibition (IC50) of 980 nM.

Regarding `CC(C)=CCCC(C)=CC(=O)N1CCC(N2C(=O)CCc3ccccc32)CC1` [Example 114, 1-[1-(2,6-Dimethyl-1,5-heptadiene-1-carbonyl)-4-piperidinyl]-3,4-dihydrocarbostyril], the half-inhibitory concentration (IC50) is 1500 nM.

`O=C(CC12CC3CC(CC(C3)C1)C2)N1CCC(N2C(=O)CCc3ccccc32)CC1` [Example 115] yielded a half-inhibitory concentration (IC50) of 700 nM.

The compound `O=C(c1ccc2ccccc2c1)N1CCC(N2C(=O)CCc3ccccc32)CC1` [Example 116, 1-[1-(2-Naphthylcarbonyl)-4-piperidinyl]-3,4-dihydrocarbostyril] returned an IC50 of 760 nM.

`O=C(c1cnc2ccccc2c1)N1CCC(N2C(=O)CCc3ccccc32)CC1` [Example 117, 1-[1-(3-quinolylcarbonyl)-4-piperidinyl]-3,4-dihydrocarbostyril] returned an IC50 of 1500 nM.

In turn, `COc1ccc(C(=O)N2CCC(N3C(=O)CCc4ccccc43)C(C)C2)c(OC)c1` (stereo not shown) [Example 118, 1-[3-Methyl-1-(2,4-dimethoxycarbonyl)-4-piperidinyl]-3,4-dihydrocarbostyril] yielded an IC50 ([H]3-Arg-vasopressin 2×10^-10 M, rat liver plasma membrane, 37° C., 10 minutes, pH 8.0) of 260 nM.

As to `COc1ccc(C(=O)N2CCC(N3C(=O)CCc4ccccc43)CC2)cc1[N+](=O)[O-]` [Example 119, 1-[1-(3-Nitro-4-methoxybenzoyl)-4-piperidinyl]-3,4-dihydrocarbostyril], half-maximal inhibition (IC50) was put at 1400 nM.

Regarding `CCOc1ccc(C(=O)N2CCC(N3C(=O)CCc4cc(F)c(F)cc43)CC2)c(OC)c1` [Example 120, 6,7-Difluoro-1-[1-(2-methoxy-4-ethoxybenzoyl)-4-piperidinyl]-3,4-dihydrocarbostyril], inhibition was half-maximal at 200 nM (IC50).

`CNC(=O)CCCOc1ccc(C(=O)N2CCC(N3C(=O)CCc4ccccc43)CC2)cc1` [Example 121, 1-{1-[4-(3-Methylaminocarbonylpropoxy)benzoyl]-4-piperidinyl}-3,4-dihydrocarbostyril] yielded a half-inhibitory concentration (IC50) of 460 nM.

In turn, `O=C(c1ccc(C=CCCO)cc1)N1CCC(N2C(=O)CCc3ccccc32)CC1` [Example 122, 1-{1-[4-(4-Hydroxy-1-butenyl)benzoyl]-4-piperidinyl}-3,4-dihydrocarbostyril] gave a concentration for half-maximal inhibition (IC50) of 710 nM. Against the preceding compound, the IC50 is about 1.5-fold higher.

Take `O=C(c1ccc(CCCCO)cc1)N1CCC(N2C(=O)CCc3ccccc32)CC1` [Example 123, 1-{1-[4-(4-Hydroxybutyl)benzoyl]-4-piperidinyl}-3,4-dihydrocarbostyril]: the IC50 was found to be 350 nM.

Regarding `CC(=O)OCCCCc1ccc(C(=O)N2CCC(N3C(=O)CCc4ccccc43)CC2)cc1` [Example 124, 1-{1-[4-(4-Acetoxybutyl)benzoyl]-4-piperidinyl}-3,4-dihydrocarbostyril], the IC50 turned out to be 320 nM. This IC50 and that of the compound before are within 1.5-fold of each other.

As for `O=C(c1ccc(OCCCCn2cccc2)cc1)N1CCC(N2C(=O)CCc3ccccc32)CC1` [Example 125, 1-[1-{4-[4-(1-pyrrolyl)butoxy]benzoyl}-4-piperidinyl]-3,4-dihydrocarbostyril], the IC50 was determined as 590 nM.

In the case of `CNc1ccc(C(=O)NCCCCOc2ccc(C(=O)N3CCC(N4C(=O)CCc5ccccc54)CC3)cc2)cc1` [Example 126, 1-[1-{4-[(4-Methylaminobenzoyl)aminobutoxy]-benzoyl}-4-piperidinyl]-3,4-dihydrocarbostyril], the half-maximal inhibitory concentration (IC50) turned out to be 360 nM.

Regarding `CC[S+]([O-])CCCOc1ccc(C(=O)N2CCC(N3C(=O)CCc4ccccc43)CC2)cc1` (stereo not shown) [Example 127, 1-{1-[4-(Ethylsulfinylpropoxy)benzoyl]-4-piperidinyl}-3,4-dihydrocarbostyril], the IC50 was 610 nM.

`O=C(c1ccc(OCCCCCCO)cc1)N1CCC(N2C(=O)CCc3ccccc32)CC1` [Example 128, 1-{1-[4-(6-Hydroxyhexyloxy)benzoyl]-4-piperidinyl}-3,4-dihydrocarbostyril] showed an IC50 of 230 nM.
